Target: T1, Kv7.2/7.3 (Homo sapiens, UniProt O43525+O43526)
T1 construct: host or cells: HEK cells, tetracycline-inducible expression
Assay: Kv7.2/7.3 activation assay, QPatch planar patch-clamp, single concentration screen
Format: cell-based
Design: key: <1.2-fold increase over baseline (−); +/−: as a range from <1.2-fold increase over baseline (−) up to >6-fold increase over baseline (+++); as a range from <1.2-fold increase over baseline (−) up to >6-fold increase over baseline (+++); as a range from <1.2-fold increase over baseline (−) up to >6-fold increase over baseline (+++); >6-fold increase over baseline (+++)
Details: Kv7.2/Kv7.3 co-expressing HEK cells, compound 3 μM, steady-state current at end of 2 s pulse to −30 mV
Method: The ability of compounds to potentiate K-currents in Kv7.2/7.3 containing HEK cells was assessed using planar patch-clamp on the QPatch automated screening platform.
Cell Line: The hKv7.2/7.3 cell line was obtained from Chantest (Cleveland, OH 44128) cat. #CT6147. These HEK cells will express the Kv7.2/7.3 ion channels when induced.
Cell Culture: Cells were maintained in a media containing DMEM/F12; 50/50 (GIBCO cat. #11330), 10% Fetal Bovine Serum (FBS) (GIBCO cat. #26140), 100 units/mL Penicillin-Streptomycin (GIBCO cat. #15140), 0.005 mg/mL Blasticidin (INVIVOGEN cat. #ant-bl-1), 0.5 mg/mL Geneticin (GIBCO cat. #10131), 0.1 mg/ml Zeocin (GIBCO cat. #R25001). Cells used in the electrophysiology assay were maintained in a media without Blasticidin, Geneticin and Zeocin for 2 days and channel expression was induced by adding tetracycline (BIOLINE cat. #BIO-87030) at a final concentration of 1 mg/mL. Cells were grown in T-175 flask to ˜75% confluency. Currents were recorded 24 hours after channel induction.
Compound Plates: Test compounds were prepared by performing serial dilutions on a Biomek NX^P (BECKMAN COULTER). Final dilutions were made in external recording solution with a final DMSO concentration of 0.1% DMSO. For single concentration screens each plate had 10 μM retigabine as a positive control and 0.1% DMSO as a negative control.
Electrophysiology: On the day of the experiment cells were washed with Hank's Balanced Salt Solution (HBBS) (GIBCO cat. #14175) and harvested with Tryple (GIBCO cat. #12604). Cells were then centrifuged at 2000 rpm for 5 minutes and resuspended in CHO-S-SFM (GIBCO cat. #12052) at ˜3×10^6 cells/mL. Cells were stirred for 30 minutes before experiments were started. External recording solution contained (in mM): NaCl (145), KCl (4), CaCl2 (2), MgCl2 (1), HEPES (10) and Glucose (10); pH was adjusted to 7.4 with NaOH and the osmolarity was adjusted to 300-305 mOsM with sucrose if necessary. Internal solution contained (in mM): KCl (125), KF (10), EGTA (5), Na2ATP (5), MgCl2 (3.2), HEPES (5); pH was adjusted to 7.2 with KOH and the osmolarity was adjusted to 298-302 mOsM with sucrose.
Potassium channel activity was measured on the QPatch HTX (Sophion Bioscience) using QPlates with 48-wells/plate. Each cell was taken as an independent experiment and only one compound was tested per well. Potassium channel activity was elicited by holding at −80 mV and stepping to −30 mV for 2 s followed by a 100 ms pulse to −120 mV.
Single concentration screen: Baseline conditions were obtained by recording 5 sweeps in the external solution only, this was repeated for three applications of the external solution. […] The steady-state current at the end of the 2 s pulse to −30 mV was measured to determine the fold increase from baseline.

| SMILES | Kv7.2/7.3 Activity: increase in current over baseline |
| --- | --- |
| C[C@](O)(CC(=O)Nc1nc2ccc(C#N)cc2n1C1CCC1)c1ccccc1 [Example 29, (S)-N-(6-cyano-1-cyclobutyl-1H-benzo[d]imidazol-2-yl)-3-hydroxy-3-phenylbutanamide] | + |
| C[C@@](O)(CC(=O)Nc1nc2ccc(C#N)cc2n1C1CCC1)c1ccccc1 [Example 30, (R)-N-(6-cyano-1-cyclobutyl-1H-benzo[d]imidazol-2-yl)-3-hydroxy-3-phenylbutanamide] | + |
| CC(C)(C)CC(=O)Nc1nc2ccc(C#N)cc2n1-c1ccc(F)cc1 [Example 31, N-(6-cyano-1-(4-fluorophenyl)-1H-benzo[d]imidazol-2-yl)-3,3-dimethylbutanamide] | + |
| CC(C)[C@H](C)C(=O)Nc1nc2ccc(C#N)cc2n1-c1ccc(F)cc1 [Example 32, (S)-N-(6-cyano-1-(4-fluorophenyl)-1H-benzo[d]imidazol-2-yl)-2,3-dimethylbutanamide] | + |
| CC1(C)C[C@@H]1C(=O)Nc1nc2ccc(C#N)cc2n1-c1ccc(F)cc1 [Example 33, (S)-N-(6-cyano-1-(4-fluorophenyl)-1H-benzo[d]imidazol-2-yl)-2,2-dimethylcyclopropane-1-carboxamide] | + |
| CC(C)(C)CC(=O)Nc1nc2ccc(C(F)(F)F)cc2n1C1CCC1 [Example 34, N-(1-cyclobutyl-6-(trifluoromethyl)-1H-benzo[d]imidazol-2-yl)-3,3-dimethylbutanamide] | ++ |
| CC(C)(O)CC(=O)Nc1nc2ccc(C(F)(F)F)cc2n1C1CCC1 [Example 35, N-(1-cyclobutyl-6-(trifluoromethyl)-1H-benzo[d]imidazol-2-yl)-3-hydroxy-3-methylbutanamide] | + |
| CC(C)[C@H](C)C(=O)Nc1nc2ccc(C(F)(F)F)cc2n1C1CCC1 [Example 36, (S)-N-(1-cyclobutyl-6-(trifluoromethyl)-1H-benzo[d]imidazol-2-yl)-2,3-dimethylbutanamide] | + |
| CC1(C)C[C@@H]1C(=O)Nc1nc2ccc(C(F)(F)F)cc2n1C1CCC1 [Example 37, (S)-N-(1-cyclobutyl-6-(trifluoromethyl)-1H-benzo[d]imidazol-2-yl)-2,2-dimethylcyclopropane-1-carboxamide] | + |
| O=C(Nc1nc2ccc(C(F)(F)F)cc2n1C1CCC1)C1CC(F)(F)C1 [Example 38, N-(1-cyclobutyl-6-(trifluoromethyl)-1H-benzo[d]imidazol-2-yl)-3,3-difluorocyclobutane-1-carboxamide] | +/− |
| O=C(CC(C(F)(F)F)C(F)(F)F)Nc1nc2ccc(C(F)(F)F)cc2n1C1CCC1 [Example 39, N-(1-cyclobutyl-6-(trifluoromethyl)-1H-benzo[d]imidazol-2-yl)-4,4,4-trifluoro-3-(trifluoromethyl)butanamide] | + |
| CC(C)[C@@H](C)C(=O)Nc1nc2ccc(C(F)(F)F)cc2n1C1CCC1 [Example 40, (R)-N-(1-cyclobutyl-6-(trifluoromethyl)-1H-benzo[d]imidazol-2-yl)-2,3-dimethylbutanamide] | + |
| CC(C)(O)[C@H]1C[C@@H]1C(=O)Nc1nc2ccc(C(F)(F)F)cc2n1C1CCC1 [Example 41, (1S,2S)-N-(1-cyclobutyl-6-(trifluoromethyl)-1H-benzo[d]imidazol-2-yl)-2-(2-hydroxypropan-2-yl)cyclopropane-1-carboxamide] | +/− |
| C[C@](O)(C(=O)Nc1nc2ccc(C(F)(F)F)cc2n1C1CCC1)C(F)(F)F [Example 42, (S)-N-(1-cyclobutyl-6-(trifluoromethyl)-1H-benzo[d]imidazol-2-yl)-3,3,3-trifluoro-2-hydroxy-2-methylpropanamide] | +/− |
| O=C(CC1(O)CCC1)Nc1nc2ccc(C(F)(F)F)cc2n1C1CCC1 [Example 44, N-(1-cyclobutyl-6-(trifluoromethyl)-1H-benzo[d]imidazol-2-yl)-2-(1-hydroxycyclobutyl)acetamide] | + |
| Cc1cc(-n2c(NC(=O)[C@H]3CC3(C)C)nc3ccc(C(F)(F)F)cc32)on1 [Example 45, (S)-2,2-Dimethyl-N-(1-(3-methylisoxazol-5-yl)-6-(trifluoromethyl)-1H-benzo[d]imidazol-2-yl)cyclopropanecarboxamide] | + |
| Cc1cc(-n2c(NC(=O)CC(C)(C)C)nc3ccc(C(F)(F)F)cc32)on1 [Example 46, 3,3-dimethyl-N-(1-(3-methylisoxazol-5-yl)-6-(trifluoromethyl)-1H-benzo[d]imidazol-2-yl)butanamide] | + |
| Cc1cc(-n2c(NC(=O)[C@@H](C)C(C)C)nc3ccc(C(F)(F)F)cc32)on1 [Example 47, (S)-2,3-dimethyl-N-(1-(3-methylisoxazol-5-yl)-6-(trifluoromethyl)-1H-benzo[d]imidazol-2-yl)butanamide] | + |
| Cc1cc(-n2c(NC(=O)[C@@H](C)C(C)(C)C)nc3ccc(C(F)(F)F)cc32)on1 [Example 48, (S)-2,3,3-trimethyl-N-(1-(3-methylisoxazol-5-yl)-6-(trifluoromethyl)-1H-benzo[d]imidazol-2-yl)butanamide] | +++ (>6-fold increase over baseline (+++)) |
| Cc1cc(-n2c(NC(=O)[C@@H](C)C(C)(C)C)nc3ccc(C#N)cc32)on1 [Example 49, (S)-N-(6-cyano-1-(3-methylisoxazol-5-yl)-1H-benzo[d]imidazol-2-yl)-2,3,3-trimethylbutanamide] | + |
| CCOC(=O)c1ccc2nc(NC(=O)CC(C)(C)C)n(C3CCC3)c2c1 [Example 50, ethyl 1-cyclobutyl-2-(3,3-dimethylbutanamido)-1H-benzo[d]imidazole-6-carboxylate] | +/− |
| CC(C)(C)CC(=O)Nc1nc2ccc(CO)cc2n1C1CCC1 [Example 51, N-(1-cyclobutyl-6-(hydroxymethyl)-1H-benzo[d]imidazol-2-yl)-3,3-dimethylbutanamide] | + |
| CC(C)[C@H](C)C(=O)Nc1nc2ccc(CO)cc2n1C1CCC1 [Example 52, (S)-N-(1-cyclobutyl-6-(hydroxymethyl)-1H-benzo[d]imidazol-2-yl)-2,3-dimethylbutanamide] | +/− |
| CC(C)(C)CC(=O)Nc1nc2ccc(C(C)(C)O)cc2n1C1CCC1 [Example 53, N-(1-cyclobutyl-6-(2-hydroxypropan-2-yl)-1H-benzo[d]imidazol-2-yl)-3,3-dimethylbutanamide] | + |
| CC(C)[C@H](C)C(=O)Nc1nc2ccc(C(C)(C)O)cc2n1C1CCC1 [Example 54, (S)-N-(1-cyclobutyl-6-(2-hydroxypropan-2-yl)-1H-benzo[d]imidazol-2-yl)-2,3-dimethylbutanamide] | ++ |
| CC(O)c1ccc2nc(NC(=O)CC(C)(C)C)n(C3CCC3)c2c1 (centres unmarked) [Example 55, N-(1-cyclobutyl-6-(1-hydroxyethyl)-1H-benzo[d]imidazol-2-yl)-3,3-dimethylbutanamide] | + |

— patent publication US12351559B2 (Biohaven Therapeutics Ltd., priority 2014, dated 2025)
